Source: patent publication US8227483B2, “Polymorphs of 6-beta-naltrexol” (Mallinckrodt LLC, priority 2008, dated 2012)

Tests used:
[1] = in vivo; compared with naloxone and naltrexone; cited from earlier work
[2] = system: chronic dependence model; details: cited from earlier work
[3] = system: acute dependence model; details: high doses; cited from earlier work
[4] = resistance to degradation in air; type: physicochemical; details: compared with Form IB
[5] = solubility in a mixture of alcohol and water; type: physicochemical; details: compared with Form IB
[6] = water vapor sorption; type: physicochemical
Method: Water Vapor Sorption. Data were collected with a SGA-100 water vapor sorption balance (VTI Corporation, Hialeah, Fla.). A portion of the selected sample was weighed into a platinum sample pan and placed into the instrument. The sample was cycled from low (5%) relative humidity (RH) to high (95%) RH to low humidity (i.e., sorption and desorption events) at a constant temperature of 25° C., in 5% RH intervals. The sample was held at each interval until the equilibrium condition was met (i.e., 0.0005% for 3 min, with a maximum of 600 min).

[7] = relative stability of the crystalline forms; type: physicochemical; details: dihydrate form of Form IIIS
Text: Above this humidity, Form IIIS absorbed approximately 1.4%-1.5% water at 95% RH.

[8] = slurry experiments (stability of the crystalline forms); type: physicochemical
Method: Slurry Experiments. The stability of the crystalline forms was analyzed using slurry experiments. A portion of the solvent of interest was saturated with 6-beta-naltrexol base or 6-beta-naltrexol hydrochloride in a small vial. Additional 6-beta-naltrexol base or 6-beta-naltrexol hydrochloride was then added to the vial, and the resulting slurry was stirred using a magnetic stir bar.

For `Oc1ccc2c3c1OC1C(O)CC[C@@]4(O)[C@@H](C2)N(CC2CC2)CC[C@]314` (stereo partly drawn) [6-beta-naltrexol, morphinan-3,6,14-triol,17-(cyclopropylmethyl)-4,5-epoxy], the duration of action [1] is listed as “longer duration of action than naloxone and naltrexone”, the “fold less potent than naloxone in precipitating withdrawal” value ([2]; relative to naloxone) is listed as ~30 fold and the “fold less potent than naltrexone in precipitating withdrawal” value ([2]; relative to naltrexone) is listed as “approximately 77 fold”. For the same compound, the withdrawal precipitated [3] was “only minimal withdrawal”.

For `Oc1ccc2c3c1O[C@H]1[C@H](O)CC[C@@]4(O)[C@@H](C2)N(CC2CC2)CC[C@]314` [Form IIB, 6-beta-naltrexol base], the “resistance to degradation in air” value [4] was “more resistant to degradation in air than Form IB” and the solubility [5] was “greater solubility in a mixture of alcohol and water than Form IB”.

With `Cl.Oc1ccc2c3c1O[C@H]1[C@H](O)CC[C@@]4(O)[C@@H](C2)N(CC2CC2)CC[C@]314` [Form IIIS, 6-beta-naltrexol hydrochloride] the stability to humidity ([6]; above 15% RH, 25° C.) was “reasonably stable up to approximately 90% RH”, the “solid form at the conclusion of the sorption experiment (pXRD)” value ([6]; after sorption/desorption cycle 5%-95%-5% RH) was “still comprised predominately Form IIIS” and the water absorbed ([6]; at 95% RH, 25° C.) was 1.4%-1.5%. The hysteresis during desorption ([6]; desorption, 25° C.) was “minimal hysteresis”, the water lost ([6]; humidities below 15% RH, 25° C., of its original 8.9% water content) was “approximately 4.5%” and the “relative stability among crystalline forms” value [7] was “most stable of all the crystalline forms of 6-beta-naltrexol hydrochloride”.

For `Cl.Oc1ccc2c3c1O[C@H]1[C@H](O)CC[C@@]4(O)[C@@H](C2)N(CC2CC2)CC[C@]314` [Form IIS, 6-beta-naltrexol hydrochloride], the “time the form was stable in slurry” value ([8]; isopropyl alcohol slurry) was “at least 8 days”.

With `Cl.Oc1ccc2c3c1O[C@H]1[C@H](O)CC[C@@]4(O)[C@@H](C2)N(CC2CC2)CC[C@]314` [Form IVS, 6-beta-naltrexol hydrochloride] the “time the form was stable in slurry” value ([8]; ethyl alcohol slurry) was “at least 15 days”.
